“Also recorded” adds a separate entry of the source. One block for each molecule: values may come before it.
How the values were obtained:
[1] = test system: Human neutrophil elastase (EC No. 3.4.21.37, Sigma-Aldrich); experiment: Human neutrophil elastase (final concentration 150 nM) in 0.1 M Tris HCl, 500 mM NaCl, 0.05% Triton X-100, 20 mM CaCl2 pH 7.5 buffer mixture; settings: 37 °C, up to 30 min.
[2] = Circular dichroism, conformation and thermal stability of β-sheet; assay type: physicochemical
Description: The molar ellipticity of peptides were registered on a Jasco J-815 spectrometer (JASCO, Easton, MD, USA). Solutions of peptide hybrids were prepared in water solution (10 mg/ml), incubated at 37 °C for 4 h and then diluted to a final concentration of 0.20 mg/ml. CD spectra measurements were performed at 25 °C, 30 °C, 35 °C, 40 °C, 45 °C, 50 °C, 55 °C and 60 °C, at 190–260 nm wavelength and at a scan speed of […]. The background of the solvent was subtracted. The results are presented as the relationship of mean residue molar ellipticity (MRME) [deg × cm^2 × dmol^−1] to wavelength [nm]. Measurements were performed in triplicate. In order to determine the peptides’ denaturation temperatures, the molar ellipticity rotatory angle at a fixed wavelength of 196 nm, [θ]196, was measured as a function of temperature (max 100 °C). CD temperature measurements were carried out up to a temperature of 100 °C. Above this temperature, the cure was extrapolated with GraphPad Prism 8 software using the 4PL curve fit function. The denaturation temperature was determined as the temperature at which the change in ellipticity (θ) was half complete.

[3] = molecular target: T1, Human neutrophil elastase (Homo sapiens, UniProt P08246); experiment: Elastase enzymatic cleavage; assay type: in vitro ADME; settings: human neutrophil elastase 150 nM, peptide 1 mM, 30 min, 37 °C
T1 construct: purchased Sigma-Aldrich
T1 sequence (P08246 30-267): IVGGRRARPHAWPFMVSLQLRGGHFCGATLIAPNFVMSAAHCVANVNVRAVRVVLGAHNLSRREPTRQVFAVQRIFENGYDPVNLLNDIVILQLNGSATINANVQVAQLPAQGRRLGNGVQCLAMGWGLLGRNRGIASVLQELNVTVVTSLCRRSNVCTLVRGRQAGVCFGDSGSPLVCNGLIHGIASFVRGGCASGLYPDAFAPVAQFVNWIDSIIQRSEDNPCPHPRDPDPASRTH
Description: Human neutrophil elastase (EC No. 3.4.21.37, Sigma-Aldrich) was used to study peptide susceptibility to that enzyme. Peptides were dissolved in 0.1 M Tris HCl, 500 mM NaCl, 0.05% Triton X-100, 20 mM CaCl2 pH 7.5 buffer mixture. Peptides (final concentration 1 mM) were mixed with the enzyme (final concentration 150 nM) and incubated for 30 min. in a thermoshaker (37 °C, 300 rpm). The reaction was stopped by a 10% aqueous solution of TFA. The results were analyzed using HPLC and MALDI or LC–MS. Details of this experiment are described in the Supplementary Data.

[4] = Transmission electron microscopy of nanofibres; assay type: physicochemical; settings: 1% gel in PBS diluted to 0.001%, uranyl acetate stain
Description: 1% gel solutions were prepared and incubated in PBS. The samples were then diluted to 0.001% concentration. A drop of solution was applied to a microcellulose membrane and stained with a 1.5% solution of uranyl acetate. The images were registered on a Tecnai Spirit BioTwin FEI Transmission Electron Microscope operating at 120 kV.

Rheology of hydrogels = assay type: physicochemical; settings: 1% hydrogel, 37 °C
Description: Rheological parameters of the hydrogels were identified using an MCR 302 rheometer (Anton Paar GmbH, Graz, Austria). The rheometer was equipped with a CP50-1 stainless steel cone-and-plate system of 50 mm diameter, 1° cone angle and 50 µm cone truncation and a Peltier controlled temperature unit. An aliquot of 900 µL of 1% hydrogel was applied to a plate cone. The linear viscoelastic (LVE) region was determined through an amplitude sweeps: shear strain (0.01–100% at 6 rad s^−1) and shear stress (0.001–10 Pa at 6.28 rad s^−1). Frequency sweep were measured from 0.01 to 100 rad s^−1 at 2.5% strain. The frequency dependence of the storage modulus (G’) and loss modulus (G”) of the hydrogels were measured at 37 °C. All experiments were carried out in triplicate and reported as the mean of three repeats.

[5] = test system: full-thickness excisional dorsal skin wounds; experiment: Skin wound healing model in mice; assay type: in vivo, BALB/c mice; settings: BALB/c female mice, 6.0 mm punch dorsal wounds, 10 µL 1% hydrogel topically daily for five days; n = 6, SD
Description: Eight to ten-week-old BALB/c female mice were used for these experiments. All experimental procedures were approved by the Local Ethics Committee for Animal Experimentation in Bydgoszcz, Poland (Approval No. 49/2016). The study was conducted in compliance with the ARRIVE gudidelines. All animal handling methods were carried out in accordance with European Union Commission Recommendation of 18 June 2007 on guidelines for the accommodation and care of animals used for experimental and other scientific purposes. Before experiments, mice were randomized and divided into groups comprising six individuals. The mice were anaesthetized with inhaled 2–5% isoflurane. The skin on the dorsum was shaved and disinfected. After the skin was folded and raised cranially and caudally along the spine, the mouse was placed in a lateral position, and the folded skin was pierced with a 6.0 mm biopsy punch to make two through-and-through symmetrical wounds. Next, 10 µL of peptide hybrid hydrogel was applied onto each wound. Every gel was prepared in sterile conditions in biological safety cabinet, using sterile water to final concentration of 10 mg/ml (1%). Then the gels were incubated for 24 h allowing it to assemble. Control mice were treated with RADA16-I. The wounds were covered with a transparent Tegaderm TM dressing to protect the wound from outer environment of the cage and other animals. It was fastened with an adhesive plaster wrapped around the animal’s torso. The peptide hybrids were applied daily to the wounds for five consecutive days. The dressings were replaced daily in the first five days of the experiment and every second day until the end of the second week of the experiment. To measure the wound areas the wounds were photographed with a ruler placed next to the injury site. Wound areas were calculated using the computer-assisted image analysis program ImageJ[51].

dorsal skin wounds = experiment: Histological evaluation of skin samples; assay type: in vivo, BALB/c mice; settings: Masson’s trichrome
Source text: Mice were sacrificed on day 18 post-injury. In addition, for investigation of early wound healing, 1 mouse from each group was sacrificed on day 4 post-injury. The skin samples were collected and stored in formalin. Skin samples embedded in paraffin were cut into 5 µm sections following staining with Masson’s trichrome (green: collagen, dermis; grey or dark grey: cell nuclei, epidermis, sebaceous glands; dark red: keratinized epidermis, muscle, hair; light red: red blood cells). Image acquisitions were made with a Leica DM IL microscope. To evaluate the collagen density in dorsal skin wounds, we employed the method of colour deconvolution described by Ruifrok and Johnston[52]. Using the ImageJ software with a colour deconvolution plug-in[53], we analyzed between 7 and 9 images of dorsal skin samples stained with Masson’ trichrome, representing 2–3 mice per group. The results are presented as mean relative collagen density.

Molecule: Ac-(Arg-Ala-Asp-Ala)4-Gly-Gly-Gly-Ala-Ala-Pro-Val-Gly-Gly-Gly-His-Lys-NH2
cleaved bond [1]: Val23-Gly24; also recorded: Gly25-Gly26, major

Molecule: Ac-(Arg-Ala-Asp-Ala)4-Gly-Gly-Gly-Ala-Ala-Pro-Val-Gly-Gly-Gly-Lys-Gly-His-Lys-NH2
cleaved bond [1]: Val23-Gly24; also recorded: Ala21-Pro22, major; also recorded: Ala20-Ala21, major

Molecule: Ac-(Arg-Ala-Asp-Ala)4-Gly-Gly-Gly-Ala-Ala-Pro-Val-Gly-Gly-Gly-Arg-Asp-Lys-Val-Tyr-Arg-NH2
cleaved bond [1]: Val23-Gly24, major; also recorded: Gly24-Gly25, major

heat stability of β-sheet structure (rank) ([2]; CD scans at different temperatures): lowest stability of β-sheet structure
Molecule: CC(=O)N[C@@H](CCCNC(=N)N)C(=O)N[C@@H](C)C(=O)N[C@@H](CC(=O)O)C(=O)N[C@@H](C)C(=O)N[C@@H](CCCNC(=N)N)C(=O)N[C@@H](C)C(=O)N[C@@H](CC(=O)O)C(=O)N[C@@H](C)C(=O)N[C@@H](CCCNC(=N)N)C(=O)N[C@@H](C)C(=O)N[C@@H](CC(=O)O)C(=O)N[C@@H](C)C(=O)N[C@@H](CCCNC(=N)N)C(=O)N[C@@H](C)C(=O)N[C@@H](CC(=O)O)C(=O)N[C@@H](C)C(N)=O [RADA16-I, Ac-(Arg-Ala-Asp-Ala)4-NH2]

identified fragments of peptides after elastase digestion (most abundant MS signals) ([3]; 300 rpm, 0.1 M Tris HCl, 500 mM NaCl, 0.05% Triton X-100, 20 mM CaCl2 pH 7.5, HPLC and MALDI or LC-MS, fragment Ac-(RADA)4-GGG-AAPV-COOH): Ac-(RADA)4-GGG-AAPV-COOH
temperature of first disruption of the β-sheets ([2]; CD, [θ]196 nm as function of temperature 4–100 °C, gel 10 mg/ml in water, 37 °C 4 h, diluted to 0.20 mg/ml, decrease of molar ellipticity): ~52 °C
transition temperature (half β-conformation, half disordered) ([2]; CD, [θ]196 nm vs temperature, 0.20 mg/ml in water, above 100 °C curve extrapolated, 4PL fit): 95 °C
fibre thickness (TEM) [4]: 6–8 nm
magnitude of G’ compared with other gels (Rheology of hydrogels; cone-plate, frequency sweep, mean of three repeats): around one-tenth of these values
shear strain above which the gel behaves like a liquid (G” > G’) (Rheology of hydrogels; strain sweep, ω = 6.28 rad/s): above 30%
Molecule: CC(=O)N[C@@H](CCCNC(=N)N)C(=O)N[C@@H](C)C(=O)N[C@@H](CC(=O)O)C(=O)N[C@@H](C)C(=O)N[C@@H](CCCNC(=N)N)C(=O)N[C@@H](C)C(=O)N[C@@H](CC(=O)O)C(=O)N[C@@H](C)C(=O)N[C@@H](CCCNC(=N)N)C(=O)N[C@@H](C)C(=O)N[C@@H](CC(=O)O)C(=O)N[C@@H](C)C(=O)N[C@@H](CCCNC(=N)N)C(=O)N[C@@H](C)C(=O)N[C@@H](CC(=O)O)C(=O)N[C@@H](C)C(=O)NCC(=O)NCC(=O)NCC(=O)N[C@@H](C)C(=O)N[C@@H](C)C(=O)N1CCC[C@H]1C(=O)N[C@H](C(=O)NCC(=O)NCC(=O)NCC(=O)N[C@@H](CCCNC(=N)N)C(=O)N[C@@H](CC(=O)O)C(=O)N[C@@H](CCCCN)C(=O)N[C@H](C(=O)N[C@@H](Cc1ccc(O)cc1)C(=O)N[C@@H](CCCNC(=N)N)C(N)=O)C(C)C)C(C)C [RADA-IM, Ac-(Arg-Ala-Asp-Ala)4-Gly-Gly-Gly-Ala-Ala-Pro-Val-Gly-Gly-Gly-Arg-Asp-Lys-Val-Tyr-Arg-NH2]
main / predominant fragments of elastase digestion ([3]; pH 7.5 buffer, HPLC, mass spectrometry): Gly^24Gly^25Gly^26Arg^27Asp^28Lys^29Val^30Tyr^31Arg^32
wound closure on day 7 [5]: 16.2 ± 21.1%
collagen density on day 18 post-injury (dorsal skin wounds; colour deconvolution, 7–9 images, 2–3 mice per group): statistically significant lower collagen density than the RADA16-I sample
hair follicles in wound area on day 18 (dorsal skin wounds; day 18 post-injury): many hair follicles could be observed
epithelium (membrane-like structure) thickness on day 4 post-injury (dorsal skin wounds; versus RADA16-I group, Mann–Whitney U test): significantly thicker epithelium
